Experimental data taken from US10295537B2, “Biorecognition elements for rapid detection of biocontamination” (The United States of America, as represented by the …, priority 2017, dated 2019).
Ends that are not written are not given here.

Assays:
P. stutzeri cells = test: Fluorometry of P. stutzeri cells labeled with peptide-QD525 conjugates; format: cell-based; settings: emission peak at 525 nm, 1×10^9 P. stutzeri cells
Method: The emission peak fluorescence at 525 nm of 1×10^9 P. stutzeri cells labeled with peptide-QD525 conjugates was measured in a fluorometer and relative fluorescence units (“RFIU”) were compared (Table 6 and 7, above). Peptides OBP11 and OBP12 targeting OprF, and peptide OPP1 targeting Opr86 presented fluorescence levels that greatly surpassed the other selected peptides for the respective target. OPP1, OBP11, and OBP12 were selected for further characterization and validation.
(§1) Bacterial stocks for experimentation were prepared by harvesting overnight grown bacterial cells by centrifugation at 11000×g for 15 min (at 4° C.), washed once with 1×PBS, pH 7.2, and re-suspended in 1×PBS to a concentration of 1×10^9 cells/mL. Bacterial titers were determined by measuring optical density at 600 nm and confirmed by colony counting on LB agar plates. Cell pellets produced by centrifuging 1 mL of the 1×10^9 cells/mL stock were re-suspended in 38 μL of 1×PBS and 62 μL of 2.4 μM peptide-QD was added to a final concentration of 1.5 μM. Cells were incubated for 30 min at 25° C. Cell pellets were washed three-times with 0.5 mL PBS and re-suspended in 500 μL PBS for fluorescence assays and imaging. Dilutions ranging from 1×10^9 cells to 1×10^4 cells were prepared using standard bacteriological techniques and 0.5 mL samples were used for fluorescence measurements.
(§2) Emission spectra were obtained using Cary Eclipse Fluorimeter with excitation at 330 nm, scan rate of 120 nm/imin, and PMT voltage of 1000V. Spectra were corrected for background and dilution factor when appropriate.

Opr86 = test: Solution biopanning against biotinylated Opr86 extracellular loop fragment, three rounds of selection; format: binding, P. aeruginosa; settings: Bushnell-Haas pH 8.5 with 1% Jet-A
Method: Generally, solution-phase biopanning was carried out as described by the manufacturer (New England Biolabs, Ipswich, Mass.) with some modifications, including the changing of pH from 7.0 to 5.5 and 8.5 and adding 1% v/v of Jet A fuel. The first round of selection was carried out by diluting Ph.D.-7 bacteriophage library 100-fold in 0.1% Tris buffer saline plus Tween 20 (0.1% TBST) at the appropriate pH for selection plus fuel. Subsequently, the phage library was incubated with 1 μg of N-terminal biotinylated target protein fragment (OprF1: […] (SEQ. ID No. 1), OprF2: ADIKNLADFMK QYPSTSTT (SEQ. ID No. 2), Opr86: […] STP (SEQ. ID No. 3)) for 1 hr at 25° C. Phage-protein complexes were captured with 50 μL of streptavidin magnetic microbeads, unbound phages were removed, and the pellet sample washed 10-times with 1 mL of 1× Tris buffer saline (“TBS”) plus 0.05% TBST to remove weakly bound phage particles. Bound bacteriophages were eluted from the beads by lowering the pH (0.2 M Glycine-HCl, pH 2.2) while rotating gently for 10 min at 25° C. After neutralization with 1 M Tris-HCl, pH 9.1, eluted phages were amplified by infection of E. coli strain ER 2738 grown in Luria-Bertani (“LB”) broth medium until early-log phase (OD600 0.1-0.5). Titer of the amplified phage (more than 10^10 pfu/mL) was determined by infection into E. coli ER2738 and subsequent growth in selective medium containing X gal/IPTG. Amplified phages from round 1 were pre-cleared with streptavidin-coated magnetic microbeads (50 μL) to further remove non-specific binders and then used as the input phage for round 2 of selection. Enrichment of the bacteriophage pool was achieved by performing […] of selection under the appropriate pH plus jet fuel condition. Genomic DNA from individual clones was sequenced by GenScript (Piscataway, N.J.).
The particular region of the Opr86 extracellular loop of sequence […] (SEQ. ID No. 3) was chemically synthesized with a biotin capture element and used as target epitope for BRE development in solution biopanning in Bushnell-Haas, pH 8.5, supplemented with 1% Jet-A. Following the previously established procedure for OprF, several unique Opr86 peptide BREs (“OPPs”) were identified after three rounds of selection (Table 7, above).

[1] = biological target: biotinylated bovine serum albumin (BSA) (Bos taurus, UniProt P02769); test: Biopanning against biotinylated BSA to identify target-unrelated peptides; format: binding; settings: phage displaying the peptide, round 3
Chain of biotinylated bovine serum albumin (BSA) (P02769 25-607): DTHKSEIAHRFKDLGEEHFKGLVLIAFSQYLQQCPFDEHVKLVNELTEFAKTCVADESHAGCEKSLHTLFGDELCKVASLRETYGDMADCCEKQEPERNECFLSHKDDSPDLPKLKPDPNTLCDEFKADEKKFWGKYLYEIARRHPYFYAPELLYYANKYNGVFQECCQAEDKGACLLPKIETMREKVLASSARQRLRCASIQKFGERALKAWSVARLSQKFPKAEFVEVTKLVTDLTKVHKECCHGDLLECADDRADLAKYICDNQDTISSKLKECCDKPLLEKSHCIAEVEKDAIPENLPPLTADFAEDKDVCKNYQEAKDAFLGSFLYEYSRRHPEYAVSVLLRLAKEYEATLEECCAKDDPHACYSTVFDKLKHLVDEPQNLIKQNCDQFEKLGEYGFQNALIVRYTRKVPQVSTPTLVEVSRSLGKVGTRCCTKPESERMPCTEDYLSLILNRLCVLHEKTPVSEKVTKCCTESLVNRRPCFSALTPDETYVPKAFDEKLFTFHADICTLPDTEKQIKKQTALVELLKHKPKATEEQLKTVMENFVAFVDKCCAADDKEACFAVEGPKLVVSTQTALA
Excerpt: The phage library was then screened to identify target-unrelated peptides by using biotinylated bovine serum albumin (“BSA”) as a target for biopanning.

[2] = system: Gram negative (P. stutzeri, P. alkaligenes, P. aeruginosa, A. venetianus) and Gram positive (Arthrobacter sp., Lynsinibacillus sp.) bacteria; test: Fluorescence microscopy of fuel degrading bacteria labeled with peptide BRE-QD545; format: cell-based; settings: 1×10^9 cells, QD545, 1.5 μM
Method: (§3) To characterize the specificity of the peptide BRE-QD545 conjugates for the intended bacterial groups, fluorescence imaging and fluorometric analysis were performed using different Gram negative and Gram positive fuel degrading bacteria. As such, cultures comprising 1×10^9 cells of Gram negative bacteria (P. stutzeri, P. alkaligenes, P. aeruginosa and A. venetianus) and Gram positive bacteria (Arthrobacter sp. and Lynsinibacillus sp.) were labeled with OPP1, OBP11 and OBP12 biofunctionalized QD545 and visualized using fluorescence microscopy (FIGS. 5-10) and the fluorescence quantified using a fluorometer (FIG. 11).
as §1
10 μL of the prepared sample was placed on a microscope slide, covered with a coverslip, and visualized on an Nikon Eclipse Ti-E inverted microscope equipped with X-Cite LED lamp, a fluorescence filter set (a bandpass exciter 405 nm and a longpass emission filter), a 1.25-numerical-aperture oil-immersion objective (DPlan 100×, Nikon). Images were captured by Nikon DS-sCMOS camera.

[3] = system: Gram negative bacteria (A. venetianus and Pseudomonas spp.); test: Fluorometry of fuel degrading bacteria labeled with peptide-QD545 conjugates (FIG. 11); format: cell-based; settings: for detection of Gram negative bacteria by fluorometer: 1×10^9 cells, QD545 conjugates, FIG. 11
Method: as §3, §1, §2

A. venetianus ATCC 31012 = test: Detection of bacteria recovered from spiked 1 L Jet A fuel with peptide-QD545 (LOD, fluorescence); format: cell-based; settings: for LOD (CFU): 1.5 μM peptide-QD; for detection possible down to, in some instances: below reproducible LOD
Method: (§4) To test the applicability of the peptide BRE-QD chemistry in the detection of bacteria in fuel and characterize the LOD in such system, bacterial cells from 1 L jet fuel samples spiked with different levels of bacteria were recovered, labeled, and detected.
(§5) One liter Jet A fuel samples were amended with 1 mL of 1×PBS containing either A. venetianus ATCC 31012 or P. stutzeri at the appropriate test concentration was added to 1 L of Jet A fuel. The inoculated jet fuel samples were thoroughly mixed by vortex for 1 min and allowed to stand for 20 min to 30 min. To recover the cells, 1 mL of 1×PBS, named bacterial recovery solution (“BRS”), was added to the jet fuel samples, the samples shaken by hand, allowed stand for 5 min, and, then, 1 mL of the aqueous phase was collected using a long serological pipette. The 1 mL of solution with bacteria was centrifuged for 5 min at 11000×g, and washed three times with 1 mL of 1×PBS. Bacterial pellets were individually labeled using a final concentration 1.5 μM peptide-QD. The LOD was defined as the lowest concentration level that could be determined to be statistically different from QD labeled cells from the results of multiple testers. The actual cell level (colony-forming units, “CFU”) detected was determined by plating a portion of the sample after being subjected to the labeled procedure.
(§6) Cells in the 1 L of fuel were recovered with 1 mL of BRS. Efficient labeling of the bacteria was indicated by high levels of fluorescence detected from the cell wall by fluorescence microscopy (FIG. 13 and Table 10, below). FIG. 14 is a similar image but of fungus (Hormoconis) labeled by peptide-QD605. The LOD was reliably determined from assays performed by multiple testers.

P. stutzeri = test: as above; format: cell-based; settings: for LOD (CFU) / Fluorescence (RFU): 1 L Jet A; for LOD (CFU): 1.5 μM peptide-QD; for detection possible down to, in some instances: below reproducible LOD; for Fluorescence (RFU): at LOD
Method: as §4, §5, §6

I I T M K R R (IITMKRR; Artificial sequence obtained through biopanning.) [OPP5, Opr86 peptide BRE]
Fluorescence (RFU) (P. stutzeri cells): 4408 ± 225 RFU
% Abundance (Opr86): 3%

IQTNPTM (Artificial sequence obtained through biopanning.)
cross-reaction with BSA [1]: cross-react with BSA

L P S T I H R (LPSTIHR; Artificial sequence obtained through biopanning.) [OPP3, Opr86 peptide BRE]
Fluorescence (RFU) (P. stutzeri cells): 2251 ± 63 RFU
% Abundance (Opr86): 2%

L R P L M N R (LRPLMNR; Artificial sequence obtained through biopanning.) [OPP4, Opr86 peptide BRE]
Fluorescence (RFU) (P. stutzeri cells): 1383 ± 74 RFU
% Abundance (Opr86): 3%

M H N L N L L (MHNLNLL; Artificial sequence obtained through biopanning.) [OPP2, Opr86 peptide BRE]
Fluorescence (RFU) (P. stutzeri cells): 1847 ± 52 RFU
% Abundance (Opr86): 2%

NMTNPPP (Artificial sequence obtained through biopanning.) [OBP6]
Fluorescence (RFU) (P. stutzeri cells): 2080 ± 280 RFU

P R I R K S H (PRIRKSH; Artificial sequence obtained through biopanning.) [OPP1, Opr86 peptide BRE]
Fluorescence (RFU) (P. stutzeri cells): 12258 ± 2060 RFU
labeling of bacteria in fluorescence micrographs [2]: specifically labeled Gram negative bacteria but not the Gram positive bacteria
% Abundance (Opr86): 3%

PIKTNRK (Artificial sequence obtained through biopanning.) [OBP11]
detection of Gram negative bacteria by fluorometer [3]: able to detect all Gram negative bacteria tested
Fluorescence (RFU) (P. stutzeri cells): 5308 ± 501 RFU
labeling of bacteria in fluorescence micrographs [2]: specifically labeled Gram negative bacteria but not the Gram positive bacteria

PKRTPRH (Artificial sequence obtained through biopanning.) [OBP12]
detection of Gram negative bacteria by fluorometer [3]: able to detect all Gram negative bacteria tested
LOD of P. stutzeri compared among all the BREs ([3]; P. stutzeri): highest LOD
Fluorescence (RFU) (P. stutzeri cells): 6443 ± 957 RFU
labeling of bacteria in fluorescence micrographs [2]: specifically labeled Gram negative bacteria but not the Gram positive bacteria

QD545-OBP11: peptide OBP11 conjugated to quantum dot QD545 (PIKTNRK; also: conjugated to quantum dot QD545)
LOD (A. venetianus ATCC 31012): 5×10^5 CFU/mL of BRS
LOD (CFU) (A. venetianus ATCC 31012; 1 L Jet A): 5 × 10^5 CFU
detection possible down to, in some instances (A. venetianus ATCC 31012): 5×10^4 CFU/mL of BRS
LOD (P. stutzeri): 5×10^5 CFU/mL of BRS
LOD (CFU) (P. stutzeri): 5 × 10^5 CFU
detection possible down to, in some instances (P. stutzeri): 5×10^4 CFU/mL of BRS

QD545-OBP12: peptide OBP12 conjugated to quantum dot QD545 (PKRTPRH; also: conjugated to quantum dot QD545)
LOD (A. venetianus ATCC 31012): 5×10^5 CFU/mL of BRS
LOD (CFU) (A. venetianus ATCC 31012; 1 L Jet A): 5 × 10^5 CFU
detection possible down to, in some instances (A. venetianus ATCC 31012): 5×10^4 CFU/mL of BRS
LOD (P. stutzeri): 5×10^5 CFU/mL of BRS
LOD (CFU) (P. stutzeri): 5 × 10^5 CFU
Fluorescence (RFU) (P. stutzeri): 12,205 RFU
detection possible down to, in some instances (P. stutzeri): 5×10^4 CFU/mL of BRS

QD545-OPP1: peptide OPP1 conjugated to quantum dot QD545 (PRIRKSH; also: conjugated to quantum dot QD545)
detection of Gram negative bacteria by fluorometer [3]: high fluorescence levels with all Gram negative bacteria tested
LOD (A. venetianus ATCC 31012): 5×10^4 CFU/mL of BRS
LOD (CFU) (A. venetianus ATCC 31012; 1 L Jet A): 5 × 10^5 CFU
Fluorescence (RFU) (A. venetianus ATCC 31012; 1 L Jet A, at LOD): 773 RFU
detection possible down to, in some instances (A. venetianus ATCC 31012): 5×10^3 CFU/mL of BRS
LOD (P. stutzeri): 5×10^4 CFU/mL of BRS
LOD (CFU) (P. stutzeri): 5 × 10^5 CFU
Fluorescence (RFU) (P. stutzeri): 820 RFU
detection possible down to, in some instances (P. stutzeri): 5×10^3 CFU/mL of BRS

QITLRST (Artificial sequence obtained through biopanning.) [OBP7]
Fluorescence (RFU) (P. stutzeri cells): 2625 ± 543 RFU

QMLLRLP (Artificial sequence obtained through biopanning.) [OBP9]
Fluorescence (RFU) (P. stutzeri cells): 3338 ± 590 RFU

R K K S R I R (RKKSRIR; Artificial sequence obtained through biopanning.) [OPP6, Opr86 peptide BRE]
Fluorescence (RFU) (P. stutzeri cells): 4126 ± 98 RFU
% Abundance (Opr86): 2%

RRSNSQL (Artificial sequence obtained through biopanning.) [OBP4]
Fluorescence (RFU) (P. stutzeri cells): 4520 ± 473 RFU
